In ChEMBL document CHEMBL1136309, “Synthesis and SAR studies of potent HIV protease inhibitors containing novel dimethylphenoxyl acetates as P2 ligands” (Bioorg Med Chem Lett, 2003):

Experiments:
[1] = system: Human immunodeficiency virus 1; test: Antiviral activity was tested in presence of 50% human serum in MT-4 cells (in vitro); assay type: functional, organism-based; details: Human immunodeficiency virus 1, MT4
[2] = system: Human immunodeficiency virus 1; test: Antiviral activity was tested in absence of human serum in MT-4 cells (in vitro); assay type: functional, organism-based; details: Human immunodeficiency virus 1, MT4
[3] = target: Human immunodeficiency virus type 1 protease (Human immunodeficiency virus 1) (UniProt Q72874); test: Inhibitory activity against HIV protease at a compound concentration of 0.5 nM in MT-4 cells; assay type: cell-based; details: MT4
[4] = target: Human immunodeficiency virus type 1 protease (Human immunodeficiency virus 1) (UniProt Q72874); test: Inhibitory activity against HIV protease at a compound concentration of 1 nM in MT-4 cells; assay type: cell-based; details: MT4
[5] = target: Human immunodeficiency virus type 1 protease (Human immunodeficiency virus 1) (UniProt Q72874); test: Inhibitory activity against HIV protease at a compound concentration of 31 nM in MT-4 cells; assay type: cell-based; details: MT4
[6] = target: Human immunodeficiency virus type 1 protease (Human immunodeficiency virus 1) (UniProt Q72874); test: Inhibitory activity against HIV protease at a compound concentration of 12 nM in MT-4 cells; assay type: cell-based; details: MT4
[7] = target: Human immunodeficiency virus type 1 protease (Human immunodeficiency virus 1) (UniProt Q72874); test: Inhibitory activity against HIV protease at a compound concentration of 2.4 nM in MT-4 cells; assay type: cell-based; details: MT4

Compound	EC50 [1] [nM]	EC50 [2] [nM]	inhibition [3] [%]	inhibition [4] [%]	inhibition [5] [%]	inhibition [6] [%]	inhibition [7] [%]
Cc1cc2oc(O)nc2c(C)c1OCC(=O)N[C@@H](Cc1ccccc1)C[C@H](O)[C@H](Cc1ccccc1)NC(=O)O[C@H]1COC2OCCC21 (stereo not given in full)	501	160	61	–	–	–	–
Cc1cc(N)cc(C)c1SCC(=O)N[C@@H](Cc1ccccc1)C[C@H](O)[C@H](Cc1ccccc1)NC(=O)O[C@H]1COC2OCCC21 (stereo not given in full)	1040	5790	–	56	–	–	–
CCOC(=O)c1cc(C)c(OCC(=O)N[C@@H](Cc2ccccc2)C[C@H](O)[C@H](Cc2ccccc2)NC(=O)O[C@H]2COC3OCCC32)c(C)c1 (stereo not given in full)	3220	106	84	–	–	–	–
Cc1cc(F)cc(C)c1OCC(=O)N[C@@H](Cc1ccccc1)C[C@H](O)[C@H](Cc1ccccc1)NC(=O)O[C@H]1COC2OCCC21 (stereo not given in full)	866	268	69	–	–	–	–
Cc1ccc(O)c(C)c1OCC(=O)N[C@@H](Cc1ccccc1)C[C@H](O)[C@H](Cc1ccccc1)NC(=O)O[C@H]1COC2OCCC21 (stereo not given in full)	98	7	92	–	–	–	–
CNC(=O)c1cc(C)c(OCC(=O)N[C@@H](Cc2ccccc2)C[C@H](O)[C@H](Cc2ccccc2)NC(=O)O[C@H]2COC3OCCC32)c(C)c1 (stereo not given in full)	533	220	–	–	–	–	–
Cc1ccccc1OCC(=O)N[C@@H](Cc1ccccc1)C[C@H](O)[C@H](Cc1ccccc1)NC(=O)O[C@H]1COC2OCCC21 (stereo not given in full)	–	–	84	–	–	–	–
Cc1cc(C(=O)N(C)C)cc(C)c1OCC(=O)N[C@@H](Cc1ccccc1)C[C@H](O)[C@H](Cc1ccccc1)NC(=O)O[C@H]1COC2OCCC21 (stereo not given in full)	11900	2310	–	–	–	–	–
COc1cccc(C)c1OCC(=O)N[C@@H](Cc1ccccc1)C[C@H](O)[C@H](Cc1ccccc1)NC(=O)O[C@H]1COC2OCCC21 (stereo not given in full)	1380	353	74	–	–	–	–
Cc1cc2[nH]nnc2c(C)c1OCC(=O)N[C@@H](Cc1ccccc1)C[C@H](O)[C@H](Cc1ccccc1)NC(=O)O[C@H]1COC2OCCC21 (stereo not given in full)	1880	188	67	–	–	–	–
Cc1cc(N)cc(C)c1[S+]([O-])CC(=O)N[C@@H](Cc1ccccc1)C[C@H](O)[C@H](Cc1ccccc1)NC(=O)O[C@H]1COC2OCCC21 (stereo not given in full)	98400	37500	–	–	50	–	–
Cc1cc(N)cc(C)c1OCC(=O)N[C@@H](Cc1ccccc1)C[C@H](O)[C@H](Cc1ccccc1)NC(=O)O[C@@H]1COC2OCCC21 (stereo not given in full)	129	47	60	–	–	–	–
Cc1cc(N2COCC2=O)cc(C)c1OCC(=O)N[C@@H](Cc1ccccc1)C[C@H](O)[C@H](Cc1ccccc1)NC(=O)O[C@H]1COC2OCCC21 (stereo not given in full)	930	214	74	–	–	–	–
Cc1ncnc(C)c1OCC(=O)N[C@@H](Cc1ccccc1)C[C@H](O)[C@H](Cc1ccccc1)NC(=O)O[C@H]1COC2OCCC21 (stereo not given in full)	1390	815	56	–	–	–	–
Cc1cccc(CO)c1OCC(=O)N[C@@H](Cc1ccccc1)C[C@H](O)[C@H](Cc1ccccc1)NC(=O)O[C@H]1COC2OCCC21 (stereo not given in full)	197	37	88	–	–	–	–
Cc1cc(C(N)=O)cc(C)c1OCC(=O)N[C@@H](Cc1ccccc1)C[C@H](O)[C@H](Cc1ccccc1)NC(=O)O[C@H]1COC2OCCC21 (stereo not given in full)	987	255	–	–	–	–	–
O=C(COc1ccccc1)N[C@@H](Cc1ccccc1)C[C@H](O)[C@H](Cc1ccccc1)NC(=O)O[C@H]1COC2OCCC21 (stereo not given in full)	–	–	61	–	–	–	–
Cc1cc(Cl)c(N)c(C)c1OCC(=O)N[C@@H](Cc1ccccc1)C[C@H](O)[C@H](Cc1ccccc1)NC(=O)O[C@H]1COC2OCCC21 (stereo not given in full)	659	62	86	–	–	–	–
Cc1cc(O)cc(C)c1OCC(=O)N[C@@H](Cc1ccccc1)C[C@H](O)[C@H](Cc1ccccc1)NC(=O)O[C@H]1COC2OCCC21 (stereo not given in full)	76	32	82	–	–	–	–
Cc1cc(NS(C)(=O)=O)cc(C)c1OCC(=O)N[C@@H](Cc1ccccc1)[C@@H](O)C[C@H](Cc1ccccc1)NC(=O)O[C@H]1COC2OCCC21 (stereo not given in full)	–	–	–	–	–	50	–
Cc1cccc(C)c1OCC(=O)N[C@@H](Cc1ccccc1)[C@@H](O)C[C@H](Cc1ccccc1)NC(=O)OC1COC2OCCC12 (stereo not given in full)	272	61	91	–	–	–	–
Cc1cc(N(C)C)cc(C)c1OCC(=O)N[C@@H](Cc1ccccc1)C[C@H](O)[C@H](Cc1ccccc1)NC(=O)O[C@H]1COC2OCCC21 (stereo not given in full)	2070	160	43	–	–	–	–
Cc1cc(N)c(N)c(C)c1OCC(=O)N[C@@H](Cc1ccccc1)C[C@H](O)[C@H](Cc1ccccc1)NC(=O)O[C@H]1COC2OCCC21 (stereo not given in full)	1480	644	76	–	–	–	–
Cc1cc2nsnc2c(C)c1OCC(=O)N[C@@H](Cc1ccccc1)C[C@H](O)[C@H](Cc1ccccc1)NC(=O)O[C@H]1COC2OCCC21 (stereo not given in full)	5650	621	71	–	–	–	–
Cc1cccc(C)c1NCC(=O)N[C@@H](Cc1ccccc1)C[C@H](O)[C@H](Cc1ccccc1)NC(=O)O[C@H]1COC2OCCC21 (stereo not given in full)	2150	253	69	–	–	–	–
Cc1ccnc(C)c1OCC(=O)N[C@@H](Cc1ccccc1)C[C@H](O)[C@H](Cc1ccccc1)NC(=O)O[C@H]1COC2OCCC21 (stereo not given in full)	438	184	49	–	–	–	–

Continued, values first:

EC50 [1] [nM]	EC50 [2] [nM]	inhibition [3] [%]	inhibition [4] [%]	inhibition [5] [%]	inhibition [6] [%]	inhibition [7] [%]	Compound
479	205	82	–	–	–	–	Cc1cc(C)c(OCC(=O)N[C@@H](Cc2ccccc2)C[C@H](O)[C@H](Cc2ccccc2)NC(=O)O[C@H]2COC3OCCC32)c(C)c1 (stereo not given in full)
340	24	77	–	–	–	–	Cc1cc(OCCN2CCOCC2)cc(C)c1OCC(=O)N[C@@H](Cc1ccccc1)C[C@H](O)[C@H](Cc1ccccc1)NC(=O)O[C@H]1COC2OCCC21 (stereo not given in full)
67	12	70	–	–	–	–	Cc1cc(N)cc(C)c1OCC(=O)N[C@@H](Cc1ccccc1)C[C@H](O)[C@H](Cc1ccccc1)NC(=O)OC1COC2OCCC12 (stereo not given in full)
35	5	87	–	–	–	–	Cc1ccc(N)c(C)c1OCC(=O)N[C@@H](Cc1ccccc1)C[C@H](O)[C@H](Cc1ccccc1)NC(=O)O[C@H]1COC2OCCC21 (stereo not given in full)
117	23	74	–	–	–	–	Cc1cc(C)c(OCC(=O)N[C@@H](Cc2ccccc2)C[C@H](O)[C@H](Cc2ccccc2)NC(=O)O[C@H]2COC3OCCC32)c(C)c1N (stereo not given in full)
300	41	87	–	–	–	–	Cc1cccc(C)c1OCC(=O)N[C@@H](Cc1ccccc1)C[C@H](O)[C@H](Cc1ccccc1)NC(=O)O[C@H]1COC2OCCC21 (stereo not given in full)
31	9	78	–	–	–	–	Cc1cc(N)cc(C)c1OCC(=O)N[C@@H](Cc1ccccc1)C[C@H](O)[C@H](Cc1ccccc1)NC(=O)O[C@H]1COC2OCCC21 (stereo not given in full)
61800	10300	–	–	–	50	–	Cc1cc(N)cc(C)c1S(=O)(=O)CC(=O)N[C@@H](Cc1ccccc1)C[C@H](O)[C@H](Cc1ccccc1)NC(=O)O[C@H]1COC2OCCC21 (stereo not given in full)
507	112	64	–	–	–	–	CNc1cc(C)c(OCC(=O)N[C@@H](Cc2ccccc2)C[C@H](O)[C@H](Cc2ccccc2)NC(=O)OC2COC3OCCC23)c(C)c1 (stereo not given in full)
30200	2910	–	–	–	–	50	Cc1cccc(C)c1N(C)CC(=O)N[C@@H](Cc1ccccc1)C[C@H](O)[C@H](Cc1ccccc1)NC(=O)O[C@H]1COC2OCCC21 (stereo not given in full)
8110	927	53	–	–	–	–	Cc1cc([N+](=O)[O-])cc(C)c1OCC(=O)N[C@@H](Cc1ccccc1)C[C@H](O)[C@H](Cc1ccccc1)NC(=O)OC1COC2OCCC12 (stereo not given in full)
3110	972	85	–	–	–	–	Cc1cc2[nH]c(O)nc2c(C)c1OCC(=O)N[C@@H](Cc1ccccc1)C[C@H](O)[C@H](Cc1ccccc1)NC(=O)O[C@H]1COC2OCCC21 (stereo not given in full)
